Literature values as cited in patent publication US9308169B2, “Microspheres for active embolization” (Biosphere Medical, Inc., priority 2000, dated 2016).

Settings: effect of the spacer / dangling cationic head of the transfection agent; general statement, no test described

Compound | transfection efficiency
CCCCCCCC/C=C\CCCCCCCC(=O)OC[C@H](COC(=O)CCC(=O)OCC[N+](C)(C)C)OC(=O)CCCCCCC/C=C\CCCCCCCC [DOSC] | best transfection efficiency
CCCCCCCC/C=C\CCCCCCCC(=O)OC[C@H](COC(=O)CCC[N+](C)(C)C)OC(=O)CCCCCCC/C=C\CCCCCCCC [DOTB] | best transfection efficiency
